Patent US20240384268A1, “Oligonucleotides” (Hudson Institute of Medical Research, priority 2021, published 2024)
In the oligonucleotide strings, read from the 5' end, every base follows the letter of its sugar. An asterisk marks phosphorothioate; unmarked linkages are phosphodiester. Other units and linkages are bracketed, terminal groups are in braces. A string of capitals states the bases alone. d = 2'-deoxy (DNA); m = 2'-O-methyl

Molecular target: T1, human TLR7 (Homo sapiens, UniProt Q9NYK1)
T1 construct: HA; host or cells: 293XL-hTLR7-HA (HEK293)
T1 sequence (Q9NYK1 27-1049): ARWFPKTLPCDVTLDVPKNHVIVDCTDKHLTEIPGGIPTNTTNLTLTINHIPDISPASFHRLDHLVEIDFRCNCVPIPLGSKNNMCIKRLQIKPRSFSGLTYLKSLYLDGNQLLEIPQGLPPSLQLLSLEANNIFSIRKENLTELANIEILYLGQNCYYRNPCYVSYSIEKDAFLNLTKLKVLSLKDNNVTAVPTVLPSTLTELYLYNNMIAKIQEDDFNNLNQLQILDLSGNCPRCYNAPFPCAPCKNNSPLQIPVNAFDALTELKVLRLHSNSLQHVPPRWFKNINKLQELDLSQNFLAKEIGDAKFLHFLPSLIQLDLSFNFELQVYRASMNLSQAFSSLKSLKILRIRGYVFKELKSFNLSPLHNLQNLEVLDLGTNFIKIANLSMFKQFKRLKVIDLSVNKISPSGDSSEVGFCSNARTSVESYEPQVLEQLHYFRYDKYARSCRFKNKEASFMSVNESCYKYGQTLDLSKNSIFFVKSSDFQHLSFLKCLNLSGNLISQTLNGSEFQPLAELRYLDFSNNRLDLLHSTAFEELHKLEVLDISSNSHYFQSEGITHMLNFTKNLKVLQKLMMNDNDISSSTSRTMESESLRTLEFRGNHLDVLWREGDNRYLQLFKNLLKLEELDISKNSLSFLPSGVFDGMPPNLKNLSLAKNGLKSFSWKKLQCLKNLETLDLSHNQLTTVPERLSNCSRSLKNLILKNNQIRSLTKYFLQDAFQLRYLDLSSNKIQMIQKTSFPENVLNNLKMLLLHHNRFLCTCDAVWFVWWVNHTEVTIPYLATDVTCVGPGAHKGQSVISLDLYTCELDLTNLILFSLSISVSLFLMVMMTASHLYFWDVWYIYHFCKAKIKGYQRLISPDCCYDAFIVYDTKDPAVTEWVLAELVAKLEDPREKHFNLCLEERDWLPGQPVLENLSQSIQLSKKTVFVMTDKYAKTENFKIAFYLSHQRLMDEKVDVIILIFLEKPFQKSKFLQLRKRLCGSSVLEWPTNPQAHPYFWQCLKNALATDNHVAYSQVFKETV
Assay: HEK-TLR7 NF-κB-luciferase reporter, R848 stimulation
Format: cell-based
Details: for TLR7 100 nM (averaged NF-κB-Luciferase level relative to R848 condition): ASO 100 nM; for TLR7 100 nM (averaged NF-κB-Luciferase level relative to R848 condition) / TLR7 500 nM (averaged NF-κB-Luciferase level relative to R848 condition): relative to R848 only, given as fraction; for TLR7 500 nM (averaged NF-κB-Luciferase level relative to R848 condition): ASO 500 nM; for TLR7-100 nM: averaged NF-κB-Luciferase relative to R848: 100 nM ASO, percentage of R848 without ASO (Alharbi et al., 2020)

Substance | TLR7 100 nM (averaged NF-κB-Luciferase level relative to R848 condition) | TLR7 500 nM (averaged NF-κB-Luciferase level relative to R848 condition) | TLR7-100 nM: averaged NF-κB-Luciferase relative to R848 (HEK-TLR7) | inhibition of R848 sensing by TLR7, short pre-treatment (in words) (HEK-TLR7, 100-500 nM oligo 20-50 min before R848 1 μg/ml)
AACCCCTTTCACCATC (antisense; LNA-modified, pattern not given here) [MB21D1-689 LNA KL] | 0.771 | 0.426 | – | –
TGGTGGCCACCCATCT (antisense; LNA-modified, pattern not given here) [CTNN2B-2479 LNA V1] | 0.957 | 0.393 | – | –
mA*mA*mA*mG*mC*A*G*T*C*T*C*C*A*T*G*mU*mC*mC*mC*mA (mA*mA*mA*mG*mC*dA*dG*dT*dC*dT*dC*dC*dA*dT*dG*mU*mC*mC*mC*mA; antisense) [[CDKN2B-AS1]2237] | – | – | 27.16% | –
TGTCTGGAAGCTTCCT (antisense; LNA-modified, pattern not given here) [CTNN2B-808 LNA V1] | 0.495 | 0.278 | – | –
GGCTCGGCTTGCCTAC (antisense; LNA-modified, pattern not given here) [CAMSAP1-5594 LNA V1] | 0.569 | 0.186 | – | –
AGGCCCTTCGCACTTC (antisense; LNA-modified, pattern not given here) [EGFR-1225 LNA V1] | 0.737 | 0.164 | – | –
mA*mA*mG*mC*mA*G*T*C*T*C*C*A*T*G*T*mC*mC*mC*mA*mG (mA*mA*mG*mC*mA*dG*dT*dC*dT*dC*dC*dA*dT*dG*dT*mC*mC*mC*mA*mG; antisense) [[CDKN2B-AS1]2236] | – | – | 35.69% | –
mA*mG*mU*mG*mG*C*A*C*A*T*A*C*C*A*C*mA*mC*mC*mC*mU (AGUGGCACATACCACACCCU; antisense; sugars from the 5' end m5 d10 m5, all phosphorothioate, methylation of C not given here) [[CDKN2B-AS1]495] | – | – | 41.95% | –
CCACTTGGCAGACCAT (antisense; LNA-modified, pattern not given here) [CTNN2B-1575 LNA V1] | 0.765 | 0.470 | – | –
CTTGGCTTCGTGGAGC (antisense; LNA-modified, pattern not given here) [MB21D1-520 LNA V1] | 0.806 | 0.098 | – | –
CCCACTTGGCAGACCA (antisense; LNA-modified, pattern not given here) [CTNN2B-1576 LNA V1] | 1.024 | 0.639 | – | –
AGTGTTGAGATACTCG (antisense; LNA-modified, pattern not given here) [EGFR-3652 LNA KL] | 0.559 | 0.115 | – | –
CACTTCGTGGGGTCCT (antisense; LNA-modified, pattern not given here) [HPRT LNA-664 V1] | 0.868 | 0.240 | – | –
CTTCGTGGGGTCCTTT (antisense; LNA-modified, pattern not given here) [HPRT LNA-662 V1] | 0.685 | 0.233 | – | –
CCAGCAGGTCAGCAAA (antisense; LNA-modified, pattern not given here) [HPRT LNA-388 KL] | 1.101 | 0.942 | – | –
mA*mG*mU*mC*mU*C*C*A*T*G*T*C*C*C*A*mG*mG*mC*mC*mU (mA*mG*mU*mC*mU*dC*dC*dA*dT*dG*dT*dC*dC*dC*dA*mG*mG*mC*mC*mU; antisense) [[CDKN2B-AS1]2232] | – | – | 35.77% | –
TGACTGTCTTGAGGGT (antisense; LNA-modified, pattern not given here) [MB21D1-1483 LNA KL] | 0.802 | 0.150 | – | –

Substance | TLR7 100 nM (averaged NF-κB-Luciferase level relative to R848 condition) | TLR7 500 nM (averaged NF-κB-Luciferase level relative to R848 condition) | TLR7-100 nM: averaged NF-κB-Luciferase relative to R848 (HEK-TLR7) | inhibition of R848 sensing by TLR7, short pre-treatment (in words) (HEK-TLR7, 100-500 nM oligo 20-50 min before R848 1 μg/ml)
GTCTTCATCGGCCCTG (antisense; LNA-modified, pattern not given here) [CAMSAP1-2113 LNA V1] | 0.641 | 0.119 | – | –
GAAAGGTTATGCAAGG (antisense; LNA-modified, pattern not given here) [CTNN2B-916 LNA KL] | 0.166 | 0.101 | – | –
ATCTGGCAGCCCATCA (antisense; LNA-modified, pattern not given here) [CTNN2B-2516 LNA V1] | 0.663 | 0.279 | – | –
CCTTGCACGTGGCTTC (antisense; LNA-modified, pattern not given here) [EGFR-1013 LNA V1] | 0.617 | 0.281 | – | –
CGCTTTTCTGTCTGGT (antisense; LNA-modified, pattern not given here) [CTNN2B-311 LNA KL] | 0.393 | 0.142 | – | –
TGTCCTTGCACGTGGC (antisense; LNA-modified, pattern not given here) [EGFR-1016 LNA V1] | 0.502 | 0.199 | – | –
GCACACTTCGTACCCA (antisense; LNA-modified, pattern not given here) [CAMSAP1-4915 LNA V1] | 0.657 | 0.221 | – | –
mU*mA*mU*mU*mU*C*C*A*C*A*T*G*C*C*C*mA*mG*mU*mG*mU (mU*mA*mU*mU*mU*dC*dC*dA*dC*dA*dT*dG*dC*dC*dC*mA*mG*mU*mG*mU; antisense) [[CDKN2B-AS1]627] | – | – | 30.54% | –
mG*mC*mA*mG*mU*C*T*C*C*A*T*G*T*C*C*mC*mA*mG*mG*mC (GCAGUCTCCATGTCCCAGGC; antisense; sugars from the 5' end m5 d10 m5, all phosphorothioate, methylation of C not given here) [[CDKN2B-AS1]2234] | – | – | 20.30% | –
TCTTCATCGGCCCTGC (antisense; LNA-modified, pattern not given here) [CAMSAP1-2112 LNA V1] | 0.820 | 0.511 | – | –
mG*mU*mG*mU*mC*C*T*T*C*A*T*G*C*T*T*mU*mG*mG*mA*mU (GUGUCCTTCATGCTTUGGAU; antisense; sugars from the 5' end m5 d10 m5, all phosphorothioate, methylation of C not given here) [[CDKN2B-AS1]1415] | – | – | 18.05% | –
TTCAGGCGCTGCCTTG (antisense; LNA-modified, pattern not given here) [CAMSAP1-2709 LNA V1] | 0.642 | 0.181 | – | –
AGGACTCCAGATGTTT (antisense; LNA-modified, pattern not given here) [HPRT LNA pos cont] | 0.437 | 0.293 | – | –
CGTATTATAGCCGATT (antisense; LNA-modified, pattern not given here) [NC1 LNA PS 3-10-3] | 0.754 | 0.226 | – | –
GTCAAGGGCATATCCT (antisense; LNA-modified, pattern not given here) [HPRT LNA-732 KL] | 0.650 | 0.142 | – | –
mC*mU*mU*mG*mU*G*A*A*A*A*G*A*T*T*A*mU*mC*mU*mU*mC (mC*mU*mU*mG*mU*dG*dA*dA*dA*dA*dG*dA*dT*dT*dA*mU*mC*mU*mU*mC) [[CDKN2B-AS1]2139] | – | – | 85.33% | did not inhibit TLR7
